Reference: patent publication US9453034B2, “C2-azaspiro iminothiazine dioxides as BACE inhibitors, compositions, and their use” (Merck Sharp & Dohme Corp., priority 2013, dated 2016)

Legend:
[1] = biological target: purified human autoBACE-2 (Homo sapiens (Human), UniProt Q9Y5Z0); experiment: BACE-2 Assay (BACE-HTRF assay); type: biochemical; settings: Ki calculated from IC50 using the Cheng-Prusoff equation; QSY7-EISEVNLDAEFC-Eu-amide substrate, pH 5.0; read-out: BACE2 Ki
Procedure: Inhibitor IC50s at purified human autoBACE-2 are determined in a time-resolved endpoint proteolysis assay that measures hydrolysis of the QSY7-EISEVNLDAEFC-Eu-amide FRET peptide substrate (BACE-HTRF assay). BACE-mediated hydrolysis of this peptide results in an increase in relative fluorescence (RFU) at 620 nm after excitation with 320 nm light. Inhibitor compounds, prepared at 3× the desired final concentration in 1×BACE assay buffer (20 mM sodium acetate pH 5.0, 10% glycerol, 0.1% Brij-35) supplemented with 7.5% DMSO are pre-incubated with an equal volume of autoBACE-2 enzyme diluted in 1×BACE assay buffer (final enzyme concentration 1 nM) in black 384-well NUNC plates for 30 minutes at 30° C. The assay is initiated by addition of an equal volume of the QSY7-EISEVNLDAEFC-Eu-amide substrate (200 nM final concentration, Km=8 μM […] for autoBACE-2) prepared in 1×BACE assay buffer supplemented with 7.5% DMSO and incubated for 90 minutes at 30° C. DMSO is present at 5% final concentration in the assay. Following laser excitation of sample wells at 320 nm, the fluorescence signal at 620 nm is collected for 400 ms following a 50 μs delay on a RUBYstar HTRF plate reader (BMG Labtechnologies). Raw RFU data is normalized to maximum (1.0 nM BACE/DMSO) and minimum (no enzyme/DMSO) RFU values. IC50s are determined by nonlinear regression analysis (sigmoidal dose response, variable slope) of percent inhibition data with minimum and maximum values set to 0 and 100 percent respectively. Similar IC50s are obtained when using raw RFU data. The Ki values are calculated from the IC50 using the Cheng-Prusoff equation.

[2] = biological target: soluble human BACE1 catalytic domain (Homo sapiens (Human), UniProt P56817); experiment: BACE1 HTRF FRET Assay; type: biochemical; settings: Ki calculated from IC50 using the Cheng-Prusoff equation; QSY7-APPswe-Eu substrate, pH 5.0
Description: Reagents: Na^+-Acetate pH 5.0; 1% Brij-35; Glycerol; Dimethyl Sulfoxide (DMSO);
A homogeneous time-resolved FRET assay can be used to determine IC50 values for inhibitors of the soluble human BACE1 catalytic domain. This assay monitors the increase of 620 nm fluorescence that resulted from BACE1 cleavage of an APPswedish APP^swe mutant peptide FRET substrate (QSY7-[…]-Europium-amide). This substrate contains an N-terminal QSY7 moiety that serves as a quencher of the C-terminal Europium fluorophore (620 nm Em). […] Inhibition of BACE1 cleavage of the QSY7-APP^swe-Eu substrate by inhibitors is manifested as a suppression of 620 nm fluorescence.
Reactions are initiated by addition of 10 μl of 600 nM QSY7-APP^swe-Eu substrate (200 nM final) to give a final reaction volume of 30 μl in a 384 well Nunc HTRF plate. The reactions are incubated at 30° C. for 1.5 hours. The 620 nm fluorescence is then read on a Rubystar HTRF plate reader (BMG Labtechnologies) using a 50 millisecond delay followed by a 400 millisecond acquisition time window. Inhibitor IC50 values are derived from non-linear regression analysis of concentration response curves.

purified human autoBACE-2, sequence (Q9Y5Z0 63-473): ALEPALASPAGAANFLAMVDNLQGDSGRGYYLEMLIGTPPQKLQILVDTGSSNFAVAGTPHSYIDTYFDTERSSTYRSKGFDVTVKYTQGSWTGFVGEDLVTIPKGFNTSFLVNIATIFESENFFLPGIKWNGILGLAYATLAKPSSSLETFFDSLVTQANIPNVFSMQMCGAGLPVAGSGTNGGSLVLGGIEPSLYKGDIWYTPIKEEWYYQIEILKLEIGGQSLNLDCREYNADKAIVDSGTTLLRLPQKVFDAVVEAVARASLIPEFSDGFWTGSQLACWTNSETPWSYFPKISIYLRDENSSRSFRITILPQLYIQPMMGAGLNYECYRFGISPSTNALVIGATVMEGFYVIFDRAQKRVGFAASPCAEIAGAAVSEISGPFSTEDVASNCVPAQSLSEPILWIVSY
soluble human BACE1 catalytic domain, sequence (P56817 75-416): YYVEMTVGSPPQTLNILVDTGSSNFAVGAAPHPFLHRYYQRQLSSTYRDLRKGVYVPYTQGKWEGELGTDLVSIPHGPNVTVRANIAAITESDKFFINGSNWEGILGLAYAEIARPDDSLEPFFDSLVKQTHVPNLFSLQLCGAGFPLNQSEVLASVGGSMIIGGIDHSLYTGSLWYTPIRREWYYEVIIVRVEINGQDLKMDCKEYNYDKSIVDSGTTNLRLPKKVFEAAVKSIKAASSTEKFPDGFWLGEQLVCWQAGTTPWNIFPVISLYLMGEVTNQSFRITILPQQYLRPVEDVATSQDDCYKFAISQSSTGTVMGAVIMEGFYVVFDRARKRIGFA

SMILES | Ki [1] [nM] | Ki [2] [nM]
CN1CCC2(CC1)C(=N)N[C@](C)(c1cc(NC(=O)c3ccc(OC(F)F)cn3)ccc1F)CS2(=O)=O [Example 31, 5-(difluoromethoxy)-N-{4-fluoro-3-[(3R)-5-imino-3,9-dimethyl-1,1-dioxido-1-thia-4,9-diazaspiro[5.5]undec-3-yl]phenyl}pyridine-2-carboxamide] | 27 | 11
CN1CCC2(CC1)C(=N)N[C@](C)(c1cc(NC(=O)c3ccc(OCF)cn3)ccc1F)CS2(=O)=O [Example 32, N-{4-fluoro-3-[(3R)-5-imino-3,9-dimethyl-1,1-dioxido-1-thia-4,9-diazaspiro[5.5]undec-3-yl]phenyl}-5-(fluoromethoxy) pyridine-2-carboxamide] | 11 | 14
COc1cnc(C(=O)Nc2ccc(F)c([C@]3(C)CS(=O)(=O)C4(CCN(C)CC4)C(=N)N3)c2)c(C)c1 [Example 33, N-{4-fluoro-3-[(3R)-5-imino-3,9-dimethyl-1,1-dioxido-1-thia-4,9-diazaspiro[5.5]undec-3-yl]phenyl}-5-methoxy-3-methylpyridine-2-carboxamide] | 23 | 37
COc1cnc(C(=O)Nc2ccc(F)c([C@]3(C)CS(=O)(=O)C4(CCN(C)CC4)C(=N)N3)c2)c(C)n1 [Example 34, N-{4-fluoro-3-[(3R)-5-imino-3,9-dimethyl-1,1-dioxido-1-thia-4,9-diazaspiro[5.5]undec-3-yl]phenyl}-5-methoxy-3-methylpyrazine-2-carboxamide] | 23 | 37
Cc1cc(C#N)cnc1C(=O)Nc1ccc(F)c([C@]2(C)CS(=O)(=O)C3(CCN(C)CC3)C(=N)N2)c1 [Example 35, 5-cyano-N-{4-fluoro-3-[(3R)-5-imino-3,9-dimethyl-1,1-dioxido-1-thia-4,9-diazaspiro[5.5]undec-3-yl]phenyl}-3-methylpyridine-2-carboxamide] | 24 | 35
CC#CCOc1ccc(C(=O)Nc2ccc(F)c([C@]3(C)CS(=O)(=O)C4(CCN(C)CC4)C(=N)N3)c2)nc1 [Example 36, 5-(but-2-yn-1-yloxy)-N-{4-fluoro-3-[(3R)-5-imino-3,9-dimethyl-1,1-dioxido-1-thia-4,9-diazaspiro[5.5]undec-3-yl]phenyl}pyridine-2-carboxamide] | 30 | 2.3
COc1ccc(C(=O)Nc2ccc(F)c([C@]3(C)CS(=O)(=O)C4(CN(C(C)=O)C4)C(=N)N3)c2)nc1 [Example 37, (R)—N-(3-(2-acetyl-9-imino-7-methyl-5,5-dioxido-5-thia-2,8-diazaspiro[3.5]nonan-7-yl)-4-fluorophenyl)-5-methoxypicolinamide] | 1.1 | 1.6
COc1ccc(C(=O)Nc2ccc(F)c([C@]3(C)CS(=O)(=O)C4(CN(S(C)(=O)=O)C4)C(=N)N3)c2)nc1 [Example 38, (R)—N-(4-fluoro-3-(9-imino-7-methyl-2-(methylsulfonyl)-5,5-dioxido-5-thia-2,8-diazaspiro[3.5]nonan-7-yl)phenyl)-5-methoxypicolinamide] | 2.3 | 6.5
CNC(=O)N1CC2(C1)C(=N)N[C@](C)(c1cc(NC(=O)c3ccc(OC)cn3)ccc1F)CS2(=O)=O [Example 39, (R)-7-(2-fluoro-5-(5-methoxypicolinamido)phenyl)-9-imino-N,7-dimethyl-5-thia-2,8-diazaspiro[3.5]nonane-2-carboxamide 5,5-dioxide] | 1.7 | 7.3
COc1ccc(C(=O)Nc2ccc(F)c([C@]3(C)CS(=O)(=O)C4(CN(Cc5ccccc5)C4)C(=N)N3)c2)nc1 [Example 40, (R)—N-(3-(2-benzyl-9-imino-7-methyl-5,5-dioxido-5-thia-2,8-diazaspiro[3.5]nonan-7-yl)-4-fluorophenyl)-5-methoxypicolinamide] | 0.6 | 7.7
COc1ccc(C(=O)Nc2ccc(F)c([C@]3(C)CS(=O)(=O)C4(CN(c5ccc([N+](=O)[O-])cc5)C4)C(=N)N3)c2)nc1 [Example 42, (R)—N-(4-fluoro-3-(9-imino-7-methyl-2-(4-nitrophenyl)-5,5-dioxido-5-thia-2,8-diazaspiro[3.5]nonan-7-yl)phenyl)-5-methoxypicolinamide] | 0.32 | 1.4

Second part, the compound after the results:

Ki [1] [nM] | Ki [2] [nM] | SMILES
56 | 548 | COCC(=O)Nc1ccc(F)c([C@]2(C)CS(=O)(=O)C3(CCN(C)CC3)C(=N)N2)c1 [Example 36b, N-{4-fluoro-3-[(3R)-5-imino-3,9-dimethyl-1,1-dioxido-1-thia-4,9-diazaspiro[5.5]undec-3-yl]phenyl}-2-methoxyacetamide]
2.6 | 3.7 | C[C@@]1(c2cc(NC(=O)c3ccc(C#N)cn3)ccc2F)CS(=O)(=O)C2(CNC2)C(=N)N1 [Example 36c, (R)-5-cyano-N-(4-fluoro-3-(9-imino-7-methyl-5,5-dioxido-5-thia-2,8-diazaspiro[3.5]nonan-7-yl)phenyl)picolinamide]
16 | 22 | COc1ccc(C(=O)Nc2ccc(F)c([C@]3(C)CS(=O)(=O)C4(CNC4)C(=N)N3)c2)nc1 [Example 36d, (R)—N-(4-fluoro-3-(9-imino-7-methyl-5,5-dioxido-5-thia-2,8-diazaspiro[3.5]nonan-7-yl)phenyl)-5-methoxypicolinamide]
1.8 | 4.1 | Cc1cc(C#N)cnc1C(=O)Nc1ccc(F)c([C@]2(C)CS(=O)(=O)C3(CNC3)C(=N)N2)c1 [Example 36e, 5-cyano-N-{4-fluoro-3-[(7R)-9-imino-7-methyl-5,5-dioxido-5-thia-2,8-diazaspiro[3.5]non-7-yl]phenyl}-3-methylpyridine-2-carboxamide]
